Counter-ions that a name gives are not always drawn.

For the assay, the target named is T1, human IKK-β (Homo sapiens, UniProt O14920).
T1 construct: A cDNA fragment encoding human IKK-β open reading frame was generated by PCR; His tag (from pcDNA3.1/His C); made in house; host or cells: Sf21 insect cells (baculovirus); substrate made in E. coli
T1 sequence (O14920 1-756): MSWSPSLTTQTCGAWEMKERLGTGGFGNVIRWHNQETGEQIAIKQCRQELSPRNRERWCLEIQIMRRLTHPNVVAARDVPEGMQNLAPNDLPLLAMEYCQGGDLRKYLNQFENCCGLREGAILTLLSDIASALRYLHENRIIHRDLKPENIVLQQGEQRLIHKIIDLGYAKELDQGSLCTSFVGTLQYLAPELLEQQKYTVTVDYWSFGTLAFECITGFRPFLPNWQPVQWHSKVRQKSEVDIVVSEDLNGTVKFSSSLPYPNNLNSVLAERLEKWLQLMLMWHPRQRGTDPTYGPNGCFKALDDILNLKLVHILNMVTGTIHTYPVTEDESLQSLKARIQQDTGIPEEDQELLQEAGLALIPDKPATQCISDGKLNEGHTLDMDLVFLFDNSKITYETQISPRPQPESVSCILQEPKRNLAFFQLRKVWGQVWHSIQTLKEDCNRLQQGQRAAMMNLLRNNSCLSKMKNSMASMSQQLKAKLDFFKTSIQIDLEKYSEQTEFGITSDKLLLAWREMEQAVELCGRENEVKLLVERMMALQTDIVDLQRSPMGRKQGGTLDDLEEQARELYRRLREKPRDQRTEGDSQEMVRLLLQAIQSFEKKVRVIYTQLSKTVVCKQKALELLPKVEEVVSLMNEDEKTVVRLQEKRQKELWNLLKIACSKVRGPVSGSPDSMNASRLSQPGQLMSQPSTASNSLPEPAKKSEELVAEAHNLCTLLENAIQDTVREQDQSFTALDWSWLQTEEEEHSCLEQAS
Nature of the assay: IKK-β kinase inhibitory assay. Type of assay: biochemical. The conditions noted are these: compounds as yielded by solid phase synthesis, purity about 40 to 90%, read-out: In vitro activity grade (In vitro IC50). The source says: [IKK-β Kinase Inhibitory Assay]
(1) Preparation of IKK-β Kinase Protein.
• A cDNA fragment encoding human IKK-β open reading frame was generated by PCR with the use of a pair of primers designed from the published sequence (Woronicz J D et al. (1997) Science 278, 866-869). A template was obtained from Quickclone cDNA (Clontech) using Elongase™ Amplification kit (Life Technologies). The DNA fragments generated by PCR were gel-purified and subcloned into pBluescript. The cDNA fragment cloned in pBluescript was inserted into pcDNA3.1/His C KpnI/NotI, and transferred into pVL1393 SmaI/XbaI (Pharmingen) to construct a baculovirus transfer vector. Then the vector, together with the linearized baculovirus (BaculoGold™, Pharmingen) was used to transfect Sf21 cells (Invitrogen, San Diego, Calif.). Generated recombinant baculovirus was cloned and amplified in Sf21 cells, grown in TNM-FH insect cell medium (Life Technologies, Inc.) supplemented with 10% FCS, […] Gentamycin, 0.1% Pluronic F-68 (Life Technologies, Inc.) as suspension culture (200 ml in 1 L Erlenmeyer flask; 27° C.; 130 rpm). Sf21 cells were infected with this amplified virus with a multiplicity of infection of 5 following standard protocols (Crossen R, Gruenwald S (1997) Baculovirus Expression Vector System Instruction Manual, Pharmingen Corporation) and harvested 48 hrs later. The cells were lysed to obtain the produced chimeric protein of IKK-β kinase fused by histidine (His-tagged IKK-beta). (2) The Preparation of Purified GST-IκBα Fusion Proteins • An expression vector containing the nucleotide sequence encoding fusion protein of GST with amino acid residues 1 to 54 of IκBα under the control of an IPTG-inducible promoter was constructed. The expression vector was introduced in E. coli and the transformant was cultured and lysed to obtain a GST-IκBα fusion protein. Then the resulting GST-IκBα fusion protein was purified and biotinated for kinase assay. (3) The Measurement of IKK-β Kinase Activity • The 96-well format kinase assay of IKK-β were performed to test the inhibitory activity of the compounds of the present invention. First, 5 μl of a test compound was put in the presence of 2.5% dimethyl sulfoxide (DMSO) in each well in a U-bottomed 96-well plate (Falcon). For control wells of background (BG) and total phosphorylation (TP), 5 μl of 2.5% DMSO was put. Recombinant IKK-β (final 0.6 μg/ml) and bio-GST-IκBα (1-54) (final 0.2 μM) were diluted in 25 μl of 2×kinase buffer β (40 mM Tris-HCl, pH 7.6, 40 mM MgCl2, 40 mM β-glycerophosphate, 40 mM p-nitrophenylphosphate, 2 mM EDTA, 40 mM creatine phosphate, 2 mM DTT, 2 mM Na3VO4, 0.2 mg/ml BSA and 0.8 mM phenylmethylsulfonyl fluoride) and transferred to the 96-well plate. Bio-GST-IκBα (1-54) in 25 μl of 2×kinase buffer β without IKK-β was transferred to BG wells. Then 20 μl of 12.5 μM ATP, 62.5 μCi/ml [γ-^33P] ATP (Amersham Pharmacia Biotech) was added and the resulting mixture was incubated for 2 hrs at room temperature. The kinase reactions were terminated by the addition of 150 μl of termination buffer (100 mM EDTA, 1 mg/ml BSA, 0.2 mg NaN3). One hundred and fifty μl of the sample were transferred to a streptavidin-coated, white MTP (Steffens Biotechniche Analysen GmbH #08114E14.FWD) to capture the biotinylated substrates. After 1 hr of incubation, non-bound radioactivity was eliminated by washing the wells five times with 300 μl of washing buffer including 0.9% NaCl and 0.1% (w/v) Tween-20 with the use of a MW-96 plate washer (BioTec). The bound radioactivity was determined after the addition of 170 μl MicroScint-PS scintillation cocktail (Packard) using a TopCount scintillation counter. [Syk Tyrosine Kinase Inhibitory Assay for Selectivity] (1) Preparation of Syk Protein • A cDNA fragment encoding human Syk openreading frame was cloned from total RNA of human Burkitt's lymphoma B cell lines, Raji (American Type Culture Collection), with the use of RT-PCR method.
Broadly, the IC50 is the midpoint of a concentration-inhibition curve. On to `Nc1nc(-c2c(O)cccc2OCC2CC2)cc(C2CCCNC2)c1CSc1ccccc1` (centres unmarked) [Example 21-1, 2-[6-amino-5-[(phenylsulfanyl)methyl]-4-(3-piperidinyl)-2-pyridinyl]-3-(cyclopropylmethoxy)phenol hydrochloride], for which the 50% inhibitory concentration (IC50) was below 500 nM.

As to `Nc1nc(-c2c(O)cccc2OCC2CC2)cc(C2CCNCC2)c1COc1ccccc1` [Example 21-3, 2-[6-amino-5-(phenoxymethyl)-4-(4-piperidinyl)-2-pyridinyl]-3-(cyclopropylmethoxy)phenol hydrochloride], the IC50 is below 500 nM.

Consider `O=C(O)c1cc2c(C3CCCNC3)cc(-c3c(O)cccc3OCC3CC3)nc2[nH]c1=O` (centres unmarked) [Example 30-1, 7-(2-cyclopropylmethoxy-6-hydroxy-phenyl)-2-oxo-5-piperidin-3-yl-1,2-dihydro[1,8]naphthyridine-3-carboxylic acid hydrochloride], for which the IC50 is below 500 nM.

For `O=C1Nc2nc(-c3ccccc3O)cc(C3=CCCNC3)c2CO1` [Example 18-6], the half-maximal inhibitory concentration (IC50) is below 500 nM.

`Cc1c(C2CCCNC2)cc(-c2ccccc2O)nc1N` (centres unmarked) [Example 14-1, 2-[6-amino-5-methyl-4-(3-piperidinyl)-2-pyridinyl]phenol hydrochloride]: the IC50 is below 500 nM.

Consider `CNc1nc(-c2ccccc2O)cc(C2CCCNC2)c1C#N` (centres unmarked) [Example 4-3, 6-(2-hydroxyphenyl)-2-(methylamino)-4-(3-piperidinyl)nicotinonitrile hydrochloride], for which the IC50 lay in the range of 2000 to 10000 nM.

For `N#Cc1c(N2CCC(C(N)=O)CC2)cc(-c2ccccc2O)nc1N` [Example 34-2, 1-[2-amino-3-cyano-6-(2-hydroxyphenyl)-4-pyridinyl]-4-piperidinecarboxamide], the IC50 was 500 to 2000 nM.

As to `CNC(=O)c1c(C2CCCNC2)cc(-c2ccccc2O)nc1N` (centres unmarked) [Example 8-2, 2-amino-6-(2-hydroxyphenyl)-N-methyl-4-(3-piperidinyl)nicotinamide hydrochloride], the IC50 was 500 to 2000 nM.

In the case of `N#Cc1c(C2CCCN(Cc3ccccc3)C2)cc(-c2c(O)cccc2OCC2CC2)nc1N` (centres unmarked) [Example 3-2, 2-amino-4-(1-benzyl-3-piperidinyl)-6-[2-(cyclopropylmethoxy)-6-hydroxyphenyl]nicotinonitrile], the IC50 lay within 2000 to 10000 nM.

Take `N#Cc1ccc(-c2ccccc2O)nc1N` [Example 33-1, 2-amino-6-(2-hydroxyphenyl)nicotinonitrile]: the half-inhibitory concentration (IC50) lay within 500 to 2000 nM.

Take `CC(O)c1c(C2CCCNC2)cc(-c2ccccc2O)nc1N` (centres unmarked) [Example 15-1, 2-[6-amino-5-(1-hydroxyethyl)-4-(3-piperidinyl)-2-pyridinyl]phenol hydrochloride]: the half-inhibitory concentration (IC50) was below 500 nM.

On to `O=C1NCc2c(C3CCCNC3)cc(-c3ccccc3O)nc2N1` (centres unmarked) [Example 22-1, 7-(2-hydroxyphenyl)-5-(3-piperidinyl)-3,4-dihydropyrido[2,3-d]pyrimidin-2(1H)-one hydrochloride], for which the IC50 was below 500 nM.

Turning to `N#Cc1c(N2CCOCC2)cc(-c2ccccc2O)nc1N` [Example 34-1, 2-amino-6-(2-hydroxyphenyl)-4-(4-morpholinyl)nicotinonitrile], the IC50 was 500 to 2000 nM.

As to `N#Cc1c(NC2CCCNC2)cc(-c2ccccc2O)nc1N` (centres unmarked) [Example 34-4, 2-amino-6-(2-hydroxyphenyl)-4-(3-piperidinylamino)nicotinonitrile hydrochloride], the IC50 was below 500 nM.

On to `Oc1cccc(OCC2CC2)c1-c1cc(C2CCCNC2)c2c(n1)NCCC2` (centres unmarked) [Example 28-01, 3-(cyclopropylmethoxy)-2-[4-(3-piperidinyl)-5,6,7,8-tetrahydro-1,8-naphthyridin-2-yl]phenol], for which the 50% inhibitory concentration (IC50) is below 500 nM.

In the case of `NC(Cc1ccccc1)c1cc(-c2ccccc2O)nc2c1COC(=O)N2` (centres unmarked) [Example 18-4/18-5, 5-(1-Amino-2-phenyl-ethyl)-7-(2-hydroxy-phenyl)-1,4-dihydro-pyrido[2,3-d][1,3]oxazin-2-one hydrochloride], the IC50 is below 500 nM.

On to `CC(=O)NCc1c(C2CCCNC2)cc(-c2c(O)cccc2OCC2CC2)nc1N` (centres unmarked) [Example 23-1, N-{[2-amino-6-[2-(cyclopropylmethoxy)-6-hydroxyphenyl]-4-(3-piperidinyl)-3-pyridinyl]methyl}acetamide hydrochoride], for which the concentration for half-maximal inhibition (IC50) was below 500 nM.

Regarding `CC(=O)N1Cc2c(C3CCCNC3)cc(-c3c(O)cccc3OCC3CC3)nc2NC1=O` (centres unmarked) [Example 24-1, 3-acetyl-7-[2-(cyclopropylmethoxy)-6-hydroxyphenyl]-5-(3-piperidinyl)-3,4-dihydropyrido[2,3-d]pyrimidin-2(1H)-one hydrochloride], the IC50 is below 500 nM.

`CS(=O)(=O)NC(=O)c1cc2c(C3CCCNC3)cc(-c3c(O)cccc3OCC3CC3)nc2[nH]c1=O` (centres unmarked) [Example 31-2, N-{[7-[2-(cyclopropylmethoxy)-6-hydroxyphenyl]-2-oxo-5-(3-piperidinyl)-1,2-dihydro-1,8-naphthyridin-3-yl]carbonyl}methanesulfonamide hydrochloride]: the 50% inhibitory concentration (IC50) was below 500 nM.

For the molecule `Oc1ccccc1-c1cc(C2CCCNC2)c2cn[nH]c2n1` (centres unmarked) [Example 16-1, 2-(4-Piperidin-3-yl-1H-pyrazolo[3,4-b]pyridin-6-yl)-phenol hydrochloride], the IC50 was in the range of 500 to 2000 nM.

In the case of `Nc1nc(-c2ccccc2O)cc2c1CNC2Cc1ccccc1` (stereo in doubt) [Example 20-3, 2-[(1S)-4-amino-1-benzyl-2,3-dihydro-1H-pyrrolo[3,4-c]pyridin-6-yl]phenol hydrochloride], the IC50 is below 500 nM.

With `N#Cc1c(C2CCCNC2)cc(-c2ncccc2O)nc1N` (centres unmarked) [Example 1-6, 6-amino-3′-hydroxy-4-(3-piperidinyl)-2,2′-bipyridine-5-carbonitrile hydrochloride], the IC50 was below 500 nM.

Consider `Nc1nc(-c2c(O)cccc2F)cc(C2CCCNC2)c1CO` (centres unmarked) [Example 11-2, 2-[6-amino-5-(hydroxymethyl)-4-(3-piperidinyl)-2-pyridinyl]-3-fluorophenol hydrochloride], for which the 50% inhibitory concentration (IC50) was below 500 nM.

For the origin of these results see patent publication US6984649B1, “Pyridine derivatives” (Bayer Aktiengesellschaft, priority 2000, dated 2006).
